Measured values reported in ChEMBL document CHEMBL1909046, “DrugMatrix in vitro pharmacology data”.
*1 amine or outer side, *2 acyl side, *3 side chain or, on linkers, in order; H or OH if unused. Where a SMILES comes first, the peptide text is derived from it. Bridges are numbered along the chain shown (N, C = ends). Roman numbers before positions name the chains, in order. [ ]: non-standard residue; d: D form. Actinocin(1to9) = Cc1c2oc3c(C)ccc(C(=O)[*:2])c3nc-2c(C(=O)[*:1])c(N)c1=O; NMeV = CN[C@H](C(=O)O)C(C)C; Sar = CNCC(=O)O

Legend:
Substance-K receptor = biological target: T1, Substance-K receptor (Homo sapiens, UniProt P21452); assay type: cell membranes, CHO, Membrane; conditions: cho; also: in other assays of this panel Not Active means under 50% inhibition at 10 µM
T1 sequence (P21452 whole entry): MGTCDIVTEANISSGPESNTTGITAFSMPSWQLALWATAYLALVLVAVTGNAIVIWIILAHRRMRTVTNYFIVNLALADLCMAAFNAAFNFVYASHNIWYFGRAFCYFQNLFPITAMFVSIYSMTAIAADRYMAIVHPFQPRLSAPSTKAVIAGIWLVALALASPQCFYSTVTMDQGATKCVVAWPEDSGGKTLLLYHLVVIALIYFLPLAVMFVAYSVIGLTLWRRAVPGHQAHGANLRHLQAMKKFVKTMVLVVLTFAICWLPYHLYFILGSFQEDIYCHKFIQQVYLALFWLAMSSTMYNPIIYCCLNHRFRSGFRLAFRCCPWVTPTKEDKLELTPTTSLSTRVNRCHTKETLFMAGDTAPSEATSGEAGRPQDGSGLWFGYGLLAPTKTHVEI

Thromboxane-A synthase = biological target: T2, Thromboxane-A synthase (Homo sapiens, UniProt P24557); assay: biochemical; assay type: tissue-based, Platelet; conditions: platelet;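 also: enzyme inhibition assay with PGH2 supplied as substrate; in other assays of this panel Not Active means under 50% inhibition at 10 µM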
T2 sequence (P24557 whole entry): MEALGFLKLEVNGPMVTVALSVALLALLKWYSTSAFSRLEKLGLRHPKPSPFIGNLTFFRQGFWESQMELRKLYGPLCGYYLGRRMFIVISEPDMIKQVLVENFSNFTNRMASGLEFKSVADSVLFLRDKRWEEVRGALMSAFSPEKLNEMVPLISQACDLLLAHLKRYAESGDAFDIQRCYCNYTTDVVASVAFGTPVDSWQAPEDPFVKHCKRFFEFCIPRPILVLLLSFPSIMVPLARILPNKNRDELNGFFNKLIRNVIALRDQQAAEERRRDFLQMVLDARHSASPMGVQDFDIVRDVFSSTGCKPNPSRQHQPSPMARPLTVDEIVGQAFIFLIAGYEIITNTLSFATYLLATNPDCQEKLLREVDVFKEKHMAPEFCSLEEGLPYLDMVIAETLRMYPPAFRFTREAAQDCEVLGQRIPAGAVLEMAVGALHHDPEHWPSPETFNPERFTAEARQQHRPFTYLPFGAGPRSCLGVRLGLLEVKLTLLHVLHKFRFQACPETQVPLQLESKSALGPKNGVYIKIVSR

Vasopressin V1a receptor = Vasopressin V1a receptor (Homo sapiens, UniProt P37288); assay type: cell membranes, Membrane; conditions: hek293; also: in other assays of this panel Not Active means under 50% inhibition at 10 µM
Sequence of Vasopressin V1a receptor (P37288 whole entry): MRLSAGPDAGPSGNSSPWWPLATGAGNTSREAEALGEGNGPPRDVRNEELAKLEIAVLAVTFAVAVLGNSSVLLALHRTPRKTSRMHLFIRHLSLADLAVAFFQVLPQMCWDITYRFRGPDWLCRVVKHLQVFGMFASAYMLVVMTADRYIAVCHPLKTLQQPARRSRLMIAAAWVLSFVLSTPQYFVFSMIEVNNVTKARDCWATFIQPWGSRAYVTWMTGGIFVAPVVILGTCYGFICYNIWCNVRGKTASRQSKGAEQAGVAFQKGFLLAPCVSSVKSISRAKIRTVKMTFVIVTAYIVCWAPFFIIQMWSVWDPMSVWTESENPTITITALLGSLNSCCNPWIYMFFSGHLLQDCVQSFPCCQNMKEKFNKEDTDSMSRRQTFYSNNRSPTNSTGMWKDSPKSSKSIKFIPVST

[1] = biological target: T3, C-X-C chemokine receptor type 2 (Homo sapiens, UniProt P25025); assay type: cell membranes, Membrane; conditions: cho-k1; also: in other assays of this panel Not Active means under 50% inhibition at 10 µM
T3 sequence (P25025 whole entry): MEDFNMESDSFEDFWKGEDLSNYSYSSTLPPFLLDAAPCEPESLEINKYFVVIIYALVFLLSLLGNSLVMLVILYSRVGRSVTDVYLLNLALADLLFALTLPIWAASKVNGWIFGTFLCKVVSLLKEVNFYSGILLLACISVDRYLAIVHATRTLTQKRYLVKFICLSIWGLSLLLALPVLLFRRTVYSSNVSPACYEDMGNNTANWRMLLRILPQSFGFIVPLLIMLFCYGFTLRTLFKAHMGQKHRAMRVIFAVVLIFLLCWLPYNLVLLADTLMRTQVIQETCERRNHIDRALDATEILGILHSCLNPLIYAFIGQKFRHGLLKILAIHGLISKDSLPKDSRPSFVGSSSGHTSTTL

Melanocortin receptor 3 = Melanocortin receptor 3 (Homo sapiens, UniProt P41968); assay type: cell membranes, HEK293, Membrane; conditions: hek293; also: in other assays of this panel Not Active means under 50% inhibition at 10 µM
Sequence of Melanocortin receptor 3 (P41968 whole entry): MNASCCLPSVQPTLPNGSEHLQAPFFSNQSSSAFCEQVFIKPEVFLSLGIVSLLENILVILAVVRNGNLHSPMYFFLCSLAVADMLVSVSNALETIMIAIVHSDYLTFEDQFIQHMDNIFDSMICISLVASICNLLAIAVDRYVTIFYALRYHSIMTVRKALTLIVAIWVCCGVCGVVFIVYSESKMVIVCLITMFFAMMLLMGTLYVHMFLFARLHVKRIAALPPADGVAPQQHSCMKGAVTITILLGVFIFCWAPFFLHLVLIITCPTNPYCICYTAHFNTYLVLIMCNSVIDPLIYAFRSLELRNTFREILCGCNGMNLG

[2] = biological target: T4, Nitric oxide synthase, inducible (Mus musculus, UniProt P29477); set-up: species or system Escherichia coli
T4 sequence (P29477 whole entry): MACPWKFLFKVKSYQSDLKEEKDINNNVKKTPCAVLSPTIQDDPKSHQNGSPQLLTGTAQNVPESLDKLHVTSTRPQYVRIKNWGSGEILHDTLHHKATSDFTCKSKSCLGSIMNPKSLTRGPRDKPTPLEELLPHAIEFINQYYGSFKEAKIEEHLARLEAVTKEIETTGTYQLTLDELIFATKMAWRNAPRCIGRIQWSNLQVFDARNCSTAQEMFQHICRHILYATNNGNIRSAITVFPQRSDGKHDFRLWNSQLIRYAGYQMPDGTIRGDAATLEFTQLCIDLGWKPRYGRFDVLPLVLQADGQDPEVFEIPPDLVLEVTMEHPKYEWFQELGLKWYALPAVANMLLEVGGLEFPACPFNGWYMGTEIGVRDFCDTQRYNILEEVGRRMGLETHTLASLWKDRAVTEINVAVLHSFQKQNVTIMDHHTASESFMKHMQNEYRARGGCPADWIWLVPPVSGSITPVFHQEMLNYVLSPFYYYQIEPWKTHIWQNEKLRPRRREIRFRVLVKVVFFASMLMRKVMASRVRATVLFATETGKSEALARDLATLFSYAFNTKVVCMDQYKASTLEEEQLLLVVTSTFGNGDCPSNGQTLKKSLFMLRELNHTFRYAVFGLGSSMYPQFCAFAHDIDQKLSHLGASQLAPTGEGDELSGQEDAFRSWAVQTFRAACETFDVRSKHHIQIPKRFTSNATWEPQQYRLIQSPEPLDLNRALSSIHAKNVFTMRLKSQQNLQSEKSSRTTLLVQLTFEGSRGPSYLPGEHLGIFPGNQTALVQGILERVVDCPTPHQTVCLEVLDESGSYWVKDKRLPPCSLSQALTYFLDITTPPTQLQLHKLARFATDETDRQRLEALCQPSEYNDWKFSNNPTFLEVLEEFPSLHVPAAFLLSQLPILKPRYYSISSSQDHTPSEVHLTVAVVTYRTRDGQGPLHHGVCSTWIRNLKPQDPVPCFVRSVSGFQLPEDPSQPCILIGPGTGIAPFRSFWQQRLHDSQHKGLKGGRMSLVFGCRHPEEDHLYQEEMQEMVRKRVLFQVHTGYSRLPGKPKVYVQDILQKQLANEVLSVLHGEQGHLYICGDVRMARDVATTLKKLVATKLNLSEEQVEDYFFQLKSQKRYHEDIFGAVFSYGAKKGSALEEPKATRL

[3] = DRUGMATRIX: Purinergic P2X radioligand binding (ligand: [3H] alpha, beta-Methylene-ATP); assay type: cell membranes, Oryctolagus cuniculus, New Zealand albino, Urinary bladder, Membrane; conditions: Not Active = under 50% inhibition at 10 µM

Cc1c2oc3c(C)ccc(C(=O)N[C@@H]4C(=O)N[C@H](C(C)C)C(=O)N5CCC[C@H]5C(=O)N(C)CC(=O)N(C)[C@@H](C(C)C)C(=O)O[C@@H]4C)c3nc-2c(C(=O)N[C@@H]2C(=O)N[C@H](C(C)C)C(=O)N3CCC[C@H]3C(=O)N(C)CC(=O)N(C)[C@@H](C(C)C)C(=O)O[C@@H]2C)c(N)c1=O [DACTINOMYCIN] (I: T[dV]P[Sar][NMeV] / II: T[dV]P[Sar][NMeV]; ester I:1-I:C, II:1-II:C; linker I:N-II:N via Actinocin(1to9))
Not Active: IC50 (Substance-K receptor) | IC50 (Thromboxane-A synthase) | IC50 (Vasopressin V1a receptor) | IC50 [1] | IC50 (Melanocortin receptor 3) | IC50 [2] | IC50 [3] | Ki [3]

C=C(C)C1(O)OC(=O)C=C1OC (stereo not given) [PENICILLIC ACID]
Not Active: IC50 (Substance-K receptor) | IC50 (Thromboxane-A synthase) | IC50 (Vasopressin V1a receptor) | IC50 [1] | IC50 (Melanocortin receptor 3) | IC50 [2] | IC50 [3] | Ki [3]

CN(Cc1ccc(C(C)(C)C)cc1)Cc1cccc2ccccc12 [BUTENAFINE]
Not Active: IC50 (Substance-K receptor) | IC50 (Thromboxane-A synthase) | IC50 (Vasopressin V1a receptor) | IC50 [1] | IC50 (Melanocortin receptor 3) | IC50 [2] | IC50 [3] | Ki [3]

NC(=O)N1c2ccccc2CCc2ccccc21
Not Active: IC50 (Substance-K receptor) | IC50 (Thromboxane-A synthase) | IC50 (Vasopressin V1a receptor) | IC50 [1] | IC50 (Melanocortin receptor 3) | IC50 [2] | IC50 [3] | Ki [3]

Cc1onc(-c2ccccc2Cl)c1C(=O)N[C@@H]1C(=O)N2[C@@H]1SC(C)(C)[C@@H]2C(=O)O [CLOXACILLIN]
Not Active: IC50 (Substance-K receptor) | IC50 (Thromboxane-A synthase) | IC50 (Vasopressin V1a receptor) | IC50 [1] | IC50 (Melanocortin receptor 3) | IC50 [2] | IC50 [3] | Ki [3]

COc1ccc(C[C@H]2NC[C@H](O)[C@H]2OC(C)=O)cc1 [ANISOMYCIN]
Not Active: IC50 (Substance-K receptor) | Ki (Substance-K receptor) | IC50 (Thromboxane-A synthase) | Ki (Thromboxane-A synthase) | IC50 (Vasopressin V1a receptor) | Ki (Vasopressin V1a receptor) | IC50 [1] | Ki [1] | IC50 (Melanocortin receptor 3) | Ki (Melanocortin receptor 3) | IC50 [2] | Ki [2] | IC50 [3] | Ki [3]

CCn1cc(C(=O)O)c(=O)c2cc(F)c(N3CCNCC3)cc21 [NORFLOXACIN]
Not Active: IC50 (Substance-K receptor) | IC50 (Thromboxane-A synthase) | IC50 (Vasopressin V1a receptor) | IC50 [1] | IC50 (Melanocortin receptor 3) | IC50 [2] | IC50 [3] | Ki [3]

CCC1(c2ccc(N)cc2)CCC(=O)NC1=O (stereo not given) [AMINOGLUTETHIMIDE]
Not Active: IC50 (Substance-K receptor) | IC50 (Thromboxane-A synthase) | IC50 (Vasopressin V1a receptor) | IC50 [1] | IC50 (Melanocortin receptor 3) | IC50 [2] | IC50 [3] | Ki [3]

Cc1ccc(/N=C/N(C)/C=N/c2ccc(C)cc2C)c(C)c1 [AMITRAZ]
Not Active: IC50 (Substance-K receptor) | IC50 (Thromboxane-A synthase) | IC50 (Vasopressin V1a receptor) | IC50 [1] | IC50 (Melanocortin receptor 3) | IC50 [2] | IC50 [3] | Ki [3]

Cc1ccc(N(CC2=NCCN2)c2cccc(O)c2)cc1 [PHENTOLAMINE]
Not Active: IC50 (Substance-K receptor) | IC50 (Thromboxane-A synthase) | IC50 (Vasopressin V1a receptor) | IC50 [1] | IC50 (Melanocortin receptor 3) | IC50 [2] | IC50 [3] | Ki [3]

CNNCc1ccc(C(=O)NC(C)C)cc1 [PROCARBAZINE]
Not Active: IC50 (Substance-K receptor) | IC50 (Thromboxane-A synthase) | IC50 (Vasopressin V1a receptor) | IC50 [1] | IC50 (Melanocortin receptor 3) | IC50 [2] | IC50 [3] | Ki [3]

CN(C)c1nc(N(C)C)nc(N(C)C)n1 [ALTRETAMINE]
Not Active: IC50 (Substance-K receptor) | IC50 (Thromboxane-A synthase) | IC50 (Vasopressin V1a receptor) | IC50 [1] | IC50 (Melanocortin receptor 3) | IC50 [2] | IC50 [3] | Ki [3]

OC(Cn1cncn1)(Cn1cncn1)c1ccc(F)cc1F [FLUCONAZOLE]
Not Active: IC50 (Substance-K receptor) | IC50 (Thromboxane-A synthase) | IC50 (Vasopressin V1a receptor) | IC50 [1] | IC50 (Melanocortin receptor 3) | IC50 [2] | IC50 [3] | Ki [3]
